Experimental data as given in ChEMBL document CHEMBL5143536, “Dihydroartemisinin improves hypercholesterolemia in ovariectomized mice via enhancing vectorial transport of cholesterol and bile acids from blood to bile” (Bioorg Med Chem, 2022).
Active and inactive are the calls of the source.

How the values were obtained:
Format in all cases: functional, organism-based
Mus musculus [1] = assay: Hypocholesterolemic activity in OVX-induced C57BL/6 mouse model assessed as increase in Slcob2 mRNA expression in liver in liver at 150 mg/kg, ig for 4 weeks by qRT-PCR analysis
Mus musculus [2] = assay: Hypocholesterolemic activity in OVX-induced C57BL/6 mouse model assessed as increase in ACACa protein expression in liver at 150 mg/kg, ig for 4 weeks by western blot analysis
Mus musculus [3] = assay: Hypocholesterolemic activity in OVX-induced C57BL/6 mouse model assessed as increase in CD36 mRNA expression in liver at 150 mg/kg, ig for 4 weeks by qRT-PCR analysis
Mus musculus [4] = assay: Hypocholesterolemic activity in OVX-induced C57BL/6 mouse model assessed as decrease in LDL-C concentration in serum at 150 mg/kg, ig for 4 weeks
Mus musculus [5] = assay: Hypocholesterolemic activity in OVX-induced C57BL/6 mouse model assessed as increase in Abcg5 mRNA expression in liver in liver at 150 mg/kg, ig for 4 weeks by qRT-PCR analysis
Mus musculus [6] = assay: Hypocholesterolemic activity in OVX-induced C57BL/6 mouse model assessed as increase in Elovl6 mRNA expression in liver at 150 mg/kg, ig for 4 weeks by qRT-PCR analysis
Mus musculus [7] = assay: Hypocholesterolemic activity in OVX-induced C57BL/6 mouse model assessed as increase in Scd1 mRNA expression in liver at 150 mg/kg, ig for 4 weeks by qRT-PCR analysis
Mus musculus [8] = assay: Hypocholesterolemic activity in OVX-induced C57BL/6 mouse model assessed as increase in Abcg8 mRNA expression in liver in liver at 150 mg/kg, ig for 4 weeks by qRT-PCR analysis
Mus musculus [9] = assay: Hypocholesterolemic activity in OVX-induced C57BL/6 mouse model assessed as decrease in Fabp6 mRNA expression in Ileum […] at 150 mg/kg, ig for 4 weeks by qRT-PCR analysis
Mus musculus [10] = assay: Hypocholesterolemic activity in OVX-induced C57BL/6 mouse model assessed as increase in SCD1 protein expression in liver at 150 mg/kg, ig for 4 weeks by western blot analysis
Mus musculus [11] = assay: Hypocholesterolemic activity in OVX-induced C57BL/6 mouse model assessed as decrease in Slc10a2 mRNA expression in Ileum at 150 mg/kg, ig for 4 weeks by qRT-PCR analysis
Mus musculus [12] = assay: Hypocholesterolemic activity in OVX-induced C57BL/6 mouse model assessed as increase in Abcb1a mRNA expression in liver in liver at 150 mg/kg, ig for 4 weeks by qRT-PCR analysis
Mus musculus [13] = assay: Hypocholesterolemic activity in OVX-induced C57BL/6 mouse model assessed as increase in Abcg8 protein expression in liver in liver at 150 mg/kg, ig for 4 weeks by western blot analysis
Mus musculus [14] = assay: Hypocholesterolemic activity in OVX-induced C57BL/6 mouse model assessed as increase in Slc10a1 mRNA expression in liver in liver at 150 mg/kg, ig for 4 weeks by qRT-PCR analysis
Mus musculus [15] = assay: Hypocholesterolemic activity in OVX-induced C57BL/6 mouse model assessed as increase in Fasn protein expression in liver at 150 mg/kg, ig for 4 weeks by western blot analysis
Mus musculus [16] = assay: Hypocholesterolemic activity in OVX-induced C57BL/6 mouse model assessed as decrease in TC concentration in serum at 150 mg/kg, ig for 4 weeks
Mus musculus [17] = assay: Hypocholesterolemic activity in OVX-induced C57BL/6 mouse model assessed as decrease in size of lipid droplet concentration in […] at 150 mg/kg, ig for 4 weeks by H and E staining based assay; settings: Liver
Mus musculus [18] = assay: Hypocholesterolemic activity in OVX-induced C57BL/6 mouse model assessed as increase in Fasn mRNA expression in liver at 150 mg/kg, ig for 4 weeks by qRT-PCR analysis
Mus musculus [19] = assay: Hypocholesterolemic activity in OVX-induced C57BL/6 mouse model assessed as decrease in number of lipid droplet concentration in liver at 150 mg/kg, ig for 4 weeks by H and E staining based assay
Mus musculus [20] = assay: Hypocholesterolemic activity in OVX-induced C57BL/6 mouse model assessed as increase in HDL-C concentration in serum at 150 mg/kg, ig for 4 weeks
Mus musculus [21] = assay: Hypocholesterolemic activity in OVX-induced C57BL/6 mouse model assessed as increase in Abcb4 mRNA expression in liver in liver at 150 mg/kg, ig for 4 weeks by qRT-PCR analysis
Mus musculus [22] = assay: Hypocholesterolemic activity in OVX-induced C57BL/6 mouse model assessed as increase in CD36 protein expression in liver at 150 mg/kg, ig for 4 weeks by western blot analysis
Mus musculus [23] = assay: Hypocholesterolemic activity in OVX-induced C57BL/6 mouse model assessed as increase in Cyp7b1 mRNA expression in liver in liver at 150 mg/kg, ig for 4 weeks by qRT-PCR analysis
Mus musculus [24] = assay: Hypocholesterolemic activity in OVX-induced C57BL/6 mouse model assessed as increase in Elovl5 mRNA expression in liver at 150 mg/kg, ig for 4 weeks by qRT-PCR analysis
Mus musculus [25] = assay: Hypocholesterolemic activity in OVX-induced C57BL/6 mouse model assessed as increase in Abcg5 protein expression in liver in liver at 150 mg/kg, ig for 4 weeks by western blot analysis

Measured: Activity

C[C@H]1[C@@H](O)O[C@@H]2O[C@@]3(C)CC[C@H]4[C@H](C)CC[C@@H]1[C@@]24OO3
active: all assays above
